Source: PubChem BioAssay AID1963827 (Molecular Pharmacology Branch, DTP, NCI, 2024)

Tested on: 994946-033-R-J1-PDC complex spheroid viability
Experiment: Anticancer human tumor 994946-033-R-J1-PDC patient-derived melanoma cell line growth inhibition [POLQ]
Details: for IC50: curve of first compound; for viability, T/C: stronger effect = lower value
Outline: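 Growth inhibition in 3D: complex spheroids (tumor PDC, HUVEC, MSC) treated with POLQ inhibitor combinations; where Cmax unknown, highest tested concentration 10 microM, except SN-38 at 1 microM.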
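Note: spheroids exposed to drugs for 7 days.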
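Throughout, for viability, T/C: 100% = DMSO vehicle treated spheroids.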

## Cn1ncnc1[C@H]1c2n[nH]c(=O)c3cc(F)cc(c23)N[C@@H]1c1ccc(F)cc1 + Nc1ccc(C#CCN(C(=O)Cc2ncc(C(F)(F)F)cc2C(F)(F)F)c2ccc(F)cc2)nn1
Second compound 0.0316 µM
  IC50: > 0.1 µM
Second compound 0.1 µM
  IC50: > 0.1 µM
Second compound 0.316 µM
  IC50: > 0.1 µM
Second compound 1 µM
  IC50: > 0.1 µM
Second compound 3.16 µM
  IC50: > 0.1 µM
Second compound 10 µM
  IC50: > 0.1 µM
Second compound 0.0316 µM, first compound 0.000316 µM
  viability, T/C: 98.5%
Second compound 0.0316 µM, first compound 0.001 µM
  viability, T/C: 99.3%
Second compound 0.0316 µM, first compound 0.00316 µM
  viability, T/C: 79.2%
Second compound 0.0316 µM, first compound 0.01 µM
  viability, T/C: 91.6%
Second compound 0.0316 µM, first compound 0.0316 µM
  viability, T/C: 86.8%
Second compound 0.0316 µM, first compound 0.1 µM
  viability, T/C: 54.3%
Second compound 0.1 µM, first compound 0.000316 µM
  viability, T/C: 101%
Second compound 0.1 µM, first compound 0.001 µM
  viability, T/C: 71.5%
Second compound 0.1 µM, first compound 0.00316 µM
  viability, T/C: 69%
Second compound 0.1 µM, first compound 0.01 µM
  viability, T/C: 93.8%
Second compound 0.1 µM, first compound 0.0316 µM
  viability, T/C: 59.2%
Second compound 0.1 µM, first compound 0.1 µM
  viability, T/C: 65.9%
Second compound 0.316 µM, first compound 0.000316 µM
  viability, T/C: 110%
Second compound 0.316 µM, first compound 0.001 µM
  viability, T/C: 48.7%
Second compound 0.316 µM, first compound 0.00316 µM
  viability, T/C: 92.3%
Second compound 0.316 µM, first compound 0.01 µM
  viability, T/C: 70.8%
Second compound 0.316 µM, first compound 0.0316 µM
  viability, T/C: 77.3%
Second compound 0.316 µM, first compound 0.1 µM
  viability, T/C: 51%
Second compound 1 µM, first compound 0.000316 µM
  viability, T/C: 65.3%
Second compound 1 µM, first compound 0.001 µM
  viability, T/C: 93%
Second compound 1 µM, first compound 0.00316 µM
  viability, T/C: 71.5%
Second compound 1 µM, first compound 0.01 µM
  viability, T/C: 72.4%
Second compound 1 µM, first compound 0.0316 µM
  viability, T/C: 59.2%
Second compound 1 µM, first compound 0.1 µM
  viability, T/C: 55%
Second compound 3.16 µM, first compound 0.000316 µM
  viability, T/C: 116%
Second compound 3.16 µM, first compound 0.001 µM
  viability, T/C: 69.4%
Second compound 3.16 µM, first compound 0.00316 µM
  viability, T/C: 74.5%
Second compound 3.16 µM, first compound 0.01 µM
  viability, T/C: 62%
Second compound 3.16 µM, first compound 0.0316 µM
  viability, T/C: 68.6%
Second compound 3.16 µM, first compound 0.1 µM
  viability, T/C: 79.7%
Second compound 10 µM, first compound 0.000316 µM
  viability, T/C: 77.7%
Second compound 10 µM, first compound 0.001 µM
  viability, T/C: 91%
Second compound 10 µM, first compound 0.00316 µM
  viability, T/C: 87.3%
Second compound 10 µM, first compound 0.01 µM
  viability, T/C: 87%
Second compound 10 µM, first compound 0.0316 µM
  viability, T/C: 67.7%
Second compound 10 µM, first compound 0.1 µM
  viability, T/C: 57.2%

## CC(=O)O[C@H]1C(=O)[C@@]2(C)[C@H]([C@H](OC(=O)c3ccccc3)[C@]3(O)C[C@H](OC(=O)[C@H](O)[C@@H](NC(=O)c4ccccc4)c4ccccc4)C(C)=C1C3(C)C)[C@]1(OC(C)=O)CO[C@@H]1C[C@@H]2O + Cc1cccc(N(C)C(=O)C2C(O)CCN2c2nc(C)cc(C(F)(F)F)c2C#N)c1
Second compound 0.0316 µM
  IC50: < 0.00949 µM
Second compound 0.1 µM
  IC50: < 0.00949 µM
Second compound 0.316 µM
  IC50: < 0.00949 µM
Second compound 1 µM
  IC50: < 0.00949 µM
Second compound 3.16 µM
  IC50: < 0.00949 µM
Second compound 10 µM
  IC50: < 0.00949 µM
Second compound 0.0316 µM, first compound 0.00949 µM
  viability, T/C: 19.5%
Second compound 0.0316 µM, first compound 0.03 µM
  viability, T/C: 19.7%
Second compound 0.0316 µM, first compound 0.0949 µM
  viability, T/C: 20.6%
Second compound 0.0316 µM, first compound 0.3 µM
  viability, T/C: 13.5%
Second compound 0.0316 µM, first compound 0.949 µM
  viability, T/C: 9.96%
Second compound 0.0316 µM, first compound 3 µM
  viability, T/C: 8.94%
Second compound 0.1 µM, first compound 0.00949 µM
  viability, T/C: 22.4%
Second compound 0.1 µM, first compound 0.03 µM
  viability, T/C: 20.6%
Second compound 0.1 µM, first compound 0.0949 µM
  viability, T/C: 16.8%
Second compound 0.1 µM, first compound 0.3 µM
  viability, T/C: 16.8%
Second compound 0.1 µM, first compound 0.949 µM
  viability, T/C: 10.6%
Second compound 0.1 µM, first compound 3 µM
  viability, T/C: 12.3%
Second compound 0.316 µM, first compound 0.00949 µM
  viability, T/C: 16.1%
Second compound 0.316 µM, first compound 0.03 µM
  viability, T/C: 31.9%
Second compound 0.316 µM, first compound 0.0949 µM
  viability, T/C: 16.3%
Second compound 0.316 µM, first compound 0.3 µM
  viability, T/C: 15.3%
Second compound 0.316 µM, first compound 0.949 µM
  viability, T/C: 14.7%
Second compound 0.316 µM, first compound 3 µM
  viability, T/C: 14.6%
Second compound 1 µM, first compound 0.00949 µM
  viability, T/C: 23.4%
Second compound 1 µM, first compound 0.03 µM
  viability, T/C: 21.8%
Second compound 1 µM, first compound 0.0949 µM
  viability, T/C: 18.9%
Second compound 1 µM, first compound 0.3 µM
  viability, T/C: 19.6%
Second compound 1 µM, first compound 0.949 µM
  viability, T/C: 12.4%
Second compound 1 µM, first compound 3 µM
  viability, T/C: 12.7%
Second compound 3.16 µM, first compound 0.00949 µM
  viability, T/C: 23%
Second compound 3.16 µM, first compound 0.03 µM
  viability, T/C: 24.2%
Second compound 3.16 µM, first compound 0.0949 µM
  viability, T/C: 20.3%
Second compound 3.16 µM, first compound 0.3 µM
  viability, T/C: 17.3%
Second compound 3.16 µM, first compound 0.949 µM
  viability, T/C: 14.5%
Second compound 3.16 µM, first compound 3 µM
  viability, T/C: 12.9%
Second compound 10 µM, first compound 0.00949 µM
  viability, T/C: 21.6%
Second compound 10 µM, first compound 0.03 µM
  viability, T/C: 26.2%
Second compound 10 µM, first compound 0.0949 µM
  viability, T/C: 23.9%
Second compound 10 µM, first compound 0.3 µM
  viability, T/C: 18.5%
Second compound 10 µM, first compound 0.949 µM
  viability, T/C: 15%
Second compound 10 µM, first compound 3 µM
  viability, T/C: 15.7%
